Molecular target: Metabotropic glutamate receptor 8 (Rattus norvegicus) (UniProt P70579)
Test: mGlu8 positive allosteric modulator potency, confirmation, cell-based, rat receptor, GIRK thallium flux (AID 743462)

Sequence of Metabotropic glutamate receptor 8 (Rattus norvegicus) (P70579 whole entry, looked up): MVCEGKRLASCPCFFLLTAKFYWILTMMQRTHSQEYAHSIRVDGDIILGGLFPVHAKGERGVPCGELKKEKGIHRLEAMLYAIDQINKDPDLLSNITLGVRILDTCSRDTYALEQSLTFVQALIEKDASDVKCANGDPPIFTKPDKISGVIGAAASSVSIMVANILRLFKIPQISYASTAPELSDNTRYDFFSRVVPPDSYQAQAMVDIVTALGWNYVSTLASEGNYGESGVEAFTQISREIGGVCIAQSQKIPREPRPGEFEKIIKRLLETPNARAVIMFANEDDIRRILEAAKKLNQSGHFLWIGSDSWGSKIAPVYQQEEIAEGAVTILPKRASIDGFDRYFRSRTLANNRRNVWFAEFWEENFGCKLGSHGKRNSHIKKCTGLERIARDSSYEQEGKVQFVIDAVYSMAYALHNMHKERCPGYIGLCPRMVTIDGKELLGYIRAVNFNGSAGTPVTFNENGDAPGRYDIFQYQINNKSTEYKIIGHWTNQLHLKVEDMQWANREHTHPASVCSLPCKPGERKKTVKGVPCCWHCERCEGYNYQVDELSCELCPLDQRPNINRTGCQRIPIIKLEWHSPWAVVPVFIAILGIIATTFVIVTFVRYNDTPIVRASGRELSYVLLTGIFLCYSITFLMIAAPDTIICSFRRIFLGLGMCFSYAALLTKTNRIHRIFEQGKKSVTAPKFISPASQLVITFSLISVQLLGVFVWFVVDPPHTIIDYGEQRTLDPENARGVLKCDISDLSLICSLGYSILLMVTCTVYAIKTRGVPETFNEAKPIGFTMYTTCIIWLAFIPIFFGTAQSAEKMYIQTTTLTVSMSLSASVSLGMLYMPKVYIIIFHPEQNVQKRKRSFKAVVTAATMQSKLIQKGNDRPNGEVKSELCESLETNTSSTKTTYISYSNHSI

EC50: 1.8 µM
SMILES: COC(=O)c1ccc(-n2c(C)cc(C(=O)CSc3ccc(NC(C)=O)cc3)c2C)cc1

From PubChem BioAssay AID743462 (Vanderbilt Specialized Chemistry Center, 2014)
